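Five concentrations, 48 hours, 96-well plates. Definition used: TGI = concentration required for complete inhibition of growth.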
Tests used:
Test in all cases: NCI-60 cell line screen, 48 h
786-0 renal = system: 786-0 renal
A498 renal = system: A498 renal
A549 NSCLC = system: A549 NSCLC
ACHN renal = system: ACHN renal
BT-549 breast = system: BT-549 breast
CAKI-1 renal = system: CAKI-1 renal
CCRF-CEM leukemia = system: CCRF-CEM leukemia
COLO 205 colon = system: COLO 205 colon
DU-145 prostate = system: DU-145 prostate
EKVX NSCLC = system: EKVX NSCLC
HCT-116 colon = system: HCT-116 colon
HCT-15 colon = system: HCT-15 colon
HL-60(TB) leukemia = system: HL-60(TB) leukemia
HOP-62 NSCLC = system: HOP-62 NSCLC
HOP-92 NSCLC = system: HOP-92 NSCLC
HT29 colon = system: HT29 colon
IGROV1 ovarian = system: IGROV1 ovarian
K-562 leukemia = system: K-562 leukemia
KM12 colon = system: KM12 colon
LOX IMVI melanoma = system: LOX IMVI melanoma
M14 melanoma = system: M14 melanoma
MALME-3M melanoma = system: MALME-3M melanoma
MDA-MB-231 breast = system: MDA-MB-231 breast
MDA-MB-435 = system: MDA-MB-435
MDA-N = system: MDA-N
MOLT-4 leukemia = system: MOLT-4 leukemia
NCI-H226 lung = system: NCI-H226 lung
NCI-H23 lung = system: NCI-H23 lung
NCI-H460 lung = system: NCI-H460 lung
NCI-H522 lung = system: NCI-H522 lung
NCI/ADR-RES ovarian = system: NCI/ADR-RES ovarian
OVCAR-3 ovarian = system: OVCAR-3 ovarian
OVCAR-4 ovarian = system: OVCAR-4 ovarian
OVCAR-5 ovarian = system: OVCAR-5 ovarian
OVCAR-8 ovarian = system: OVCAR-8 ovarian
PC-3 prostate = system: PC-3 prostate
RPMI-8226 leukemia = system: RPMI-8226 leukemia
RXF 393 renal = system: RXF 393 renal
SF-268 CNS = system: SF-268 CNS
SF-295 CNS = system: SF-295 CNS
SF-539 CNS = system: SF-539 CNS
SK-MEL-2 melanoma = system: SK-MEL-2 melanoma
SK-MEL-28 melanoma = system: SK-MEL-28 melanoma
SK-MEL-5 melanoma = system: SK-MEL-5 melanoma
SK-OV-3 ovarian = system: SK-OV-3 ovarian
SN12C renal = system: SN12C renal
SNB-19 CNS = system: SNB-19 CNS
SNB-75 CNS = system: SNB-75 CNS
SR leukemia = system: SR leukemia
SW-620 colon = system: SW-620 colon
T-47D breast = system: T-47D breast
TK-10 renal = system: TK-10 renal
U251 CNS = system: U251 CNS
UACC-257 melanoma = system: UACC-257 melanoma
UACC-62 melanoma = system: UACC-62 melanoma
UO-31 renal = system: UO-31 renal
HCC-2998 colon = system: HCC-2998 colon
MCF7 breast = system: MCF7 breast
HS 578T breast = system: HS 578T breast

In the case of `O=C(O)c1cccc(SSc2cccc(C(=O)O)c2)c1`, the TGI (786-0 renal) is reported as greater than 100 µM, the TGI (A498 renal) is reported as greater than 100 µM and the TGI (A549 NSCLC) is reported as greater than 100 µM. It also gave a TGI (ACHN renal) greater than 100 µM, a TGI (BT-549 breast) greater than 100 µM and a TGI (CAKI-1 renal) greater than 100 µM. For the same compound, the TGI (CCRF-CEM leukemia) was 81 µM, the TGI (COLO 205 colon) was greater than 100 µM and the TGI (DU-145 prostate) was greater than 100 µM. For the same compound, the TGI (EKVX NSCLC) was greater than 100 µM, the TGI (HCT-116 colon) was greater than 100 µM and the TGI (HCT-15 colon) was greater than 100 µM. For the same compound, the TGI (HL-60(TB) leukemia) was greater than 100 µM, the TGI (HOP-62 NSCLC) was greater than 100 µM and the TGI (HOP-92 NSCLC) was greater than 100 µM. For the same compound, the TGI (HT29 colon) was greater than 100 µM, the TGI (IGROV1 ovarian) was greater than 100 µM and the TGI (K-562 leukemia) was greater than 100 µM. For the same compound, the TGI (KM12 colon) was greater than 100 µM, the TGI (LOX IMVI melanoma) was greater than 100 µM and the TGI (M14 melanoma) was greater than 100 µM. It also gave a TGI (MALME-3M melanoma) greater than 100 µM, a TGI (MDA-MB-231 breast) greater than 100 µM and a TGI (MDA-MB-435) greater than 100 µM. For the same compound, the TGI (MDA-N) was greater than 100 µM, the TGI (MOLT-4 leukemia) was greater than 100 µM and the TGI (NCI-H226 lung) was greater than 100 µM. For the same compound, the TGI (NCI-H23 lung) was greater than 100 µM, the TGI (NCI-H460 lung) was greater than 100 µM and the TGI (NCI-H522 lung) was greater than 100 µM. The TGI (NCI/ADR-RES ovarian) was greater than 100 µM, the TGI (OVCAR-3 ovarian) was greater than 100 µM and the TGI (OVCAR-4 ovarian) was greater than 100 µM. It also gave a TGI (OVCAR-5 ovarian) greater than 100 µM, a TGI (OVCAR-8 ovarian) greater than 100 µM and a TGI (PC-3 prostate) greater than 100 µM. For the same compound, the TGI (RPMI-8226 leukemia) was greater than 100 µM, the TGI (RXF 393 renal) was greater than 100 µM and the TGI (SF-268 CNS) was greater than 100 µM. For the same compound, the TGI (SF-295 CNS) was greater than 100 µM, the TGI (SF-539 CNS) was greater than 100 µM and the TGI (SK-MEL-2 melanoma) was greater than 100 µM. It also gave a TGI (SK-MEL-28 melanoma) greater than 100 µM, a TGI (SK-MEL-5 melanoma) greater than 100 µM and a TGI (SK-OV-3 ovarian) greater than 100 µM. For the same compound, the TGI (SN12C renal) was greater than 100 µM, the TGI (SNB-19 CNS) was greater than 100 µM and the TGI (SNB-75 CNS) was greater than 100 µM. It also gave a TGI (SR leukemia) greater than 100 µM, a TGI (SW-620 colon) greater than 100 µM and a TGI (T-47D breast) greater than 100 µM. The TGI (TK-10 renal) was greater than 100 µM, the TGI (U251 CNS) was greater than 100 µM and the TGI (UACC-257 melanoma) was greater than 100 µM. The TGI (UACC-62 melanoma) was greater than 100 µM and the TGI (UO-31 renal) was greater than 100 µM.
Compound `CC(C)(Br)C(Br)CCC1(C(Br)CBr)CO1` (stereo unspecified) has a TGI (786-0 renal) greater than 10 µM, a TGI (A498 renal) greater than 10 µM and a TGI (A549 NSCLC) greater than 10 µM. It also gave a TGI (ACHN renal) greater than 10 µM, a TGI (BT-549 breast) greater than 10 µM and a TGI (CAKI-1 renal) greater than 10 µM. The TGI (CCRF-CEM leukemia) was greater than 10 µM, the TGI (COLO 205 colon) was greater than 10 µM and the TGI (DU-145 prostate) was greater than 10 µM. It also gave a TGI (EKVX NSCLC) greater than 10 µM, a TGI (HCC-2998 colon) greater than 10 µM and a TGI (HCT-116 colon) greater than 10 µM. It also gave a TGI (HL-60(TB) leukemia) greater than 10 µM, a TGI (HOP-62 NSCLC) greater than 10 µM and a TGI (HOP-92 NSCLC) greater than 10 µM. For the same compound, the TGI (HT29 colon) was greater than 10 µM, the TGI (IGROV1 ovarian) was greater than 10 µM and the TGI (K-562 leukemia) was greater than 10 µM. The TGI (KM12 colon) was greater than 10 µM, the TGI (M14 melanoma) was greater than 10 µM and the TGI (MCF7 breast) was greater than 10 µM. It also gave a TGI (MDA-MB-231 breast) greater than 10 µM, a TGI (MDA-MB-435) greater than 10 µM and a TGI (MDA-N) greater than 10 µM. The TGI (MOLT-4 leukemia) was greater than 10 µM, the TGI (NCI-H226 lung) was greater than 10 µM and the TGI (NCI-H23 lung) was greater than 10 µM. For the same compound, the TGI (NCI-H522 lung) was greater than 10 µM, the TGI (OVCAR-3 ovarian) was greater than 10 µM and the TGI (OVCAR-4 ovarian) was greater than 10 µM. The TGI (OVCAR-5 ovarian) was greater than 10 µM, the TGI (OVCAR-8 ovarian) was greater than 10 µM and the TGI (PC-3 prostate) was greater than 10 µM. It also gave a TGI (RPMI-8226 leukemia) greater than 10 µM, a TGI (RXF 393 renal) greater than 10 µM and a TGI (SF-268 CNS) greater than 10 µM. It also gave a TGI (SF-295 CNS) greater than 10 µM, a TGI (SF-539 CNS) greater than 10 µM and a TGI (SK-MEL-28 melanoma) greater than 10 µM. It also gave a TGI (SK-MEL-5 melanoma) greater than 10 µM, a TGI (SK-OV-3 ovarian) greater than 10 µM and a TGI (SN12C renal) greater than 10 µM. The TGI (SNB-19 CNS) was greater than 10 µM, the TGI (SNB-75 CNS) was greater than 10 µM and the TGI (SR leukemia) was greater than 10 µM. For the same compound, the TGI (SW-620 colon) was greater than 10 µM, the TGI (T-47D breast) was greater than 10 µM and the TGI (TK-10 renal) was greater than 10 µM. It also gave a TGI (U251 CNS) greater than 10 µM, a TGI (UACC-62 melanoma) greater than 10 µM and a TGI (UO-31 renal) greater than 10 µM.
Work on `COc1cc(/C=C2\CCC/C(=C\c3ccc(OC(=O)CCCCC4CCSS4)c(OC)c3)C2=O)ccc1OC(=O)CCCCC1CCSS1` (stereo unspecified) yielded a TGI (786-0 renal) greater than 100 µM, a TGI (A498 renal) greater than 100 µM and a TGI (A549 NSCLC) greater than 100 µM. It also gave a TGI (ACHN renal) greater than 100 µM, a TGI (BT-549 breast) greater than 100 µM and a TGI (CCRF-CEM leukemia) greater than 100 µM. The TGI (COLO 205 colon) was greater than 100 µM, the TGI (DU-145 prostate) was greater than 100 µM and the TGI (EKVX NSCLC) was greater than 100 µM. The TGI (HCT-116 colon) was greater than 100 µM, the TGI (HCT-15 colon) was greater than 100 µM and the TGI (HL-60(TB) leukemia) was greater than 100 µM. The TGI (HOP-62 NSCLC) was greater than 100 µM, the TGI (HS 578T breast) was greater than 100 µM and the TGI (HT29 colon) was greater than 100 µM. For the same compound, the TGI (IGROV1 ovarian) was greater than 100 µM, the TGI (K-562 leukemia) was greater than 100 µM and the TGI (KM12 colon) was greater than 100 µM. For the same compound, the TGI (LOX IMVI melanoma) was greater than 100 µM, the TGI (M14 melanoma) was greater than 100 µM and the TGI (MALME-3M melanoma) was greater than 100 µM. The TGI (MCF7 breast) was greater than 100 µM, the TGI (MDA-MB-231 breast) was greater than 100 µM and the TGI (MDA-MB-435) was greater than 100 µM. For the same compound, the TGI (MDA-N) was greater than 100 µM, the TGI (MOLT-4 leukemia) was greater than 100 µM and the TGI (NCI-H226 lung) was greater than 100 µM. For the same compound, the TGI (NCI-H23 lung) was greater than 100 µM, the TGI (NCI-H460 lung) was greater than 100 µM and the TGI (NCI-H522 lung) was greater than 100 µM. For the same compound, the TGI (NCI/ADR-RES ovarian) was greater than 100 µM, the TGI (OVCAR-3 ovarian) was greater than 100 µM and the TGI (OVCAR-4 ovarian) was greater than 100 µM. For the same compound, the TGI (OVCAR-5 ovarian) was greater than 100 µM, the TGI (OVCAR-8 ovarian) was greater than 100 µM and the TGI (PC-3 prostate) was greater than 100 µM. The TGI (RPMI-8226 leukemia) was greater than 100 µM, the TGI (RXF 393 renal) was greater than 100 µM and the TGI (SF-268 CNS) was greater than 100 µM. For the same compound, the TGI (SF-295 CNS) was greater than 100 µM, the TGI (SF-539 CNS) was greater than 100 µM and the TGI (SK-MEL-2 melanoma) was greater than 100 µM. The TGI (SK-MEL-28 melanoma) was greater than 100 µM, the TGI (SK-MEL-5 melanoma) was greater than 100 µM and the TGI (SK-OV-3 ovarian) was greater than 100 µM. For the same compound, the TGI (SN12C renal) was greater than 100 µM, the TGI (SNB-19 CNS) was greater than 100 µM and the TGI (SNB-75 CNS) was greater than 100 µM. It also gave a TGI (SW-620 colon) greater than 100 µM, a TGI (TK-10 renal) greater than 100 µM and a TGI (U251 CNS) greater than 100 µM. The TGI (UACC-257 melanoma) was greater than 100 µM, the TGI (UACC-62 melanoma) was greater than 100 µM and the TGI (UO-31 renal) was greater than 100 µM.

— PubChem BioAssay (NCI)
